Source: patent US20050282755A1, “Compositions having antimicrobial activity and uses thereof” (priority 2004, published 2005)
In brackets after ≈: the same amount, converted by molar mass. Starred links: 1 amine or outer side, 2 acyl side, 3 side chain; linkers in the order of their positions; H or OH if unused. Non-standard residues stand in square brackets, D forms with d. Residues, ends and D or L forms follow the SMILES beside them. *: point of attachment. Ethylenediamine = C(CN[*:2])N[*:1]; Palmitoyl = CCCCCCCCCCCCCCCC(=O)*; Lauroyl = CCCCCCCCCCCC(=O)*; Octanoyl = CCCCCCCC(=O)*; Hexanoyl = CCCCCC(=O)*

Assays:
Assay type in all cases: cell-based
[1] = tested on: Candida albicans ATCC 18804; test: MIC in yeasts, NCCLS M27-A2 broth microdilution, RPMI 1640 (Table 9, letter e); settings: ATCC 18804
Procedure, shortened: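 Plates incubated 24 to 48 hours at 37° C, with yeast seeded at 0.5×10^3–2.5×10^3 CFU/milliliter final in RPMI 1640 (glutamine, phenol red indicator). MIC was read as the lowest peptide concentration showing no visible growth.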

[2] = tested on: Staphylococcus aureus ATCC 29213; test: MIC, NCCLS M7-A6 broth microdilution, cation-adjusted Mueller Hinton broth (Table 9, no superscript); settings: ATCC 29213
Procedure, shortened: (§1)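 Broth microdilution in cation-adjusted Mueller Hinton broth, log-phase inoculum giving 5×10^5 to 1×10^6 CFU/milliliter per well. Overnight incubation at 37° C. MIC taken as lowest peptide concentration with no visible turbidity versus a no-peptide control.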

[3] = tested on: Pseudomonas aeruginosa ATCC 27853; test: MIC, NCCLS M7-A6 broth microdilution (Table 9, no superscript); settings: ATCC 27853
Procedure, shortened: as §1

[4] = tested on: Salmonella dublin (Lane); test: as above
Procedure, shortened: as §1

[5] = tested on: Staphylococcus epidermidis ATCC 12228; test: as above; settings: ATCC 12228
Procedure, shortened: as §1

[6] = tested on: Escherichia coli ATCC 25922; test: as above; settings: ATCC 25922
Procedure, shortened: as §1

[7] = tested on: Propionibacterium acnes ATCC 6919; test: MIC, agar dilution method NCCLS M11-A6, Brucella agar, anaerobic (Table 9, superscript c); settings: ATCC 6919
Procedure, shortened: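 MIC taken as the lowest peptide level giving no colonies on the plate. Plates were inoculated to 1.5×10^8 CFU/milliliter, then kept anaerobically at 37° C. for 48-96 hours; method follows NCCLS M11-A6.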

| Compound | MIC C. albicans [1] [e ug/mL] | MIC S. aureus [2] [µg/mL] | MIC P. aeruginosa [3] [µg/mL] | MIC S. dublin [4] [µg/mL] | MIC S. epidermidis [5] [µg/mL] | MIC E. coli [6] [µg/mL] | MIC P. acnes [7] [c ug/mL] |
| --- | --- | --- | --- | --- | --- | --- | --- |
| CCCCCCCCCCCC(=O)N[C@@H](CO)C(=O)N[C@@H](CCCNC(=N)N)C(=O)N[C@@H](Cc1c[nH]c2ccccc12)C(=O)N[C@@H](CCCNC(=N)N)C(=O)N[C@@H](CC(=O)O)C(=O)N[C@H](C(=O)N[C@@H](C)C(N)=O)C(C)C [Peptide 104, Lauryl-SRWRDVA-NH2] (Lauroyl-SRWRDVA-NH2) | >64 | 4 (≈ 3.74 µM) | >64 | >64 | >64 | >64 | >64 |
| CCCCCCCCCCCC(=O)N[C@@H](CCCNC(=N)N)C(=O)N[C@@H](CO)C(=O)N[C@@H](CCCNC(=N)N)C(=O)N[C@@H](Cc1c[nH]c2ccccc12)C(=O)N[C@@H](CCCNC(=N)N)C(=O)N[C@@H](CC(=O)O)C(=O)N[C@H](C(=O)N[C@@H](C)C(=O)N[C@@H](CCCNC(=N)N)C(=O)N[C@@H](CC(N)=O)C(=O)N[C@@H](Cc1ccccc1)C(=O)N[C@@H](CCSC)C(=O)N[C@@H](CCCNC(=N)N)C(=O)N[C@@H](Cc1c[nH]c2ccccc12)C(N)=O)C(C)C [Peptide 141, Lauryl-RSRWRDVARNFMRW-NH2] (Lauroyl-RSRWRDVARNFMRW-NH2) | 2 | 16 (≈ 7.56 µM) | >64 | 16 (≈ 7.56 µM) | 4 (≈ 1.89 µM) | 16 (≈ 7.56 µM) | 32 |
| CCCCCC(=O)NCCNC(=O)[C@H](CCCNC(=N)N)NC(=O)[C@H](CCSC)NC(=O)[C@H](Cc1ccccc1)NC(=O)[C@H](CC(N)=O)NC(=O)[C@H](CCCNC(=N)N)NC(=O)[C@H](C)NC(=O)[C@@H](NC(=O)[C@H](CC(=O)O)NC(=O)[C@H](CCCNC(=N)N)NC(=O)[C@H](Cc1c[nH]c2ccccc12)NC(=O)[C@H](CCCNC(=N)N)NC(=O)[C@H](CO)NC(=O)[C@@H](N)CCCNC(=N)N)C(C)C [Peptide 173, H2N-RSRWRDVARNFMR-Ethylamidohexanyl] (H-RSRWRDVARNFMR-{Ethylenediamine-Hexanoyl}; C-terminus assumed) | 64 | 16 (≈ 8.46 µM) | 16 (≈ 8.46 µM) | 32 (≈ 16.9 µM) | 2 (≈ 1.06 µM) | 8 (≈ 4.23 µM) | >64 |
| CCCCCCCCCCCCCCCC(=O)NCCCC[C@@H](NC(=O)[C@@H](CCCNC(=N)N)NC(=O)[C@@H](CCSC)NC(=O)[C@@H](Cc1ccccc1)NC(=O)[C@@H](CC(N)=O)NC(=O)[C@@H](CCCNC(=N)N)NC(=O)[C@@H](C)NC(=O)[C@H](NC(=O)[C@@H](CC(=O)O)NC(=O)[C@@H](CCCNC(=N)N)NC(=O)[C@@H](Cc1c[nH]c2ccccc12)NC(=O)[C@@H](CCCNC(=N)N)NC(=O)[C@@H](CO)NC(=O)[C@H](N)CCCNC(=N)N)C(C)C)C(N)=O [Peptide 201, H2N-rsrwrdvarnfmrk(Palmitoyl)-NH2] (H-[dR][dS][dR][dW][dR][dD][dV][dA][dR][dN][dF][dM][dR][dK](Palmitoyl)-NH2) | 2 | 16 (≈ 7.56 µM) | >64 | 16 (≈ 7.56 µM) | 2 (≈ 0.945 µM) | 32 (≈ 15.1 µM) | 16 |
| CCCCCCCCCCCC(=O)N[C@@H](CCCNC(=N)N)C(=O)N[C@@H](CO)C(=O)N[C@@H](CCCNC(=N)N)C(=O)N[C@@H](Cc1c[nH]c2ccccc12)C(=O)N[C@@H](CCCNC(=N)N)C(=O)N[C@@H](CC(=O)O)C(=O)N[C@H](C(=O)N[C@@H](C)C(=O)N[C@@H](CCCNC(=N)N)C(=O)N[C@@H](CC(N)=O)C(=O)N[C@@H](Cc1ccccc1)C(=O)N[C@@H](CCSC)C(N)=O)C(C)C [Peptide 98, Lauryl-RSRWRDVARNFM-NH2] (Lauroyl-RSRWRDVARNFM-NH2) | 16 | 4 (≈ 2.25 µM) | 64 (≈ 36.1 µM) | 16 (≈ 9.01 µM) | 8 (≈ 4.51 µM) | 16 (≈ 9.01 µM) | >64 |
| CCCCCCCCCCCC(=O)N[C@H](CCCNC(=N)N)C(=O)N[C@H](CO)C(=O)N[C@H](CCCNC(=N)N)C(=O)N[C@H](Cc1c[nH]c2ccccc12)C(=O)N[C@H](CCCNC(=N)N)C(=O)N[C@H](CCC(=O)O)C(=O)N[C@@H](C(=O)N[C@H](C)C(=O)N[C@H](CCCNC(=N)N)C(=O)N[C@H](CC(N)=O)C(=O)N[C@H](Cc1ccccc1)C(=O)N[C@H](CC(C)C)C(=O)N[C@H](CCCNC(=N)N)C(N)=O)C(C)C [Peptide 221, Lauryl-rsrwrevarnflr-NH2] (Lauroyl-[dR][dS][dR][dW][dR][dE][dV][dA][dR][dN][dF][dL][dR]-NH2) | 2 | 4 (≈ 2.08 µM) | 8 (≈ 4.15 µM) | 8 (≈ 4.15 µM) | 2 (≈ 1.04 µM) | 8 (≈ 4.15 µM) | 32 |
| CCCCCCCCCCCC(=O)N[C@@H](CCCNC(=N)N)C(=O)N[C@@H](CO)C(=O)N[C@@H](CCCNC(=N)N)C(=O)N[C@@H](Cc1c[nH]c2ccccc12)C(=O)N[C@@H](CCCNC(=N)N)C(=O)N[C@@H](CC(=O)O)C(=O)N[C@H](C(=O)N[C@@H](CC(C)C)C(=O)N[C@@H](CCCNC(=N)N)C(=O)N[C@@H](CC(N)=O)C(=O)N[C@@H](Cc1ccccc1)C(=O)N[C@@H](CCSC)C(=O)N[C@@H](CCCNC(=N)N)C(N)=O)C(C)C [Peptide 134, Lauryl-RSRWRDVLRNFMR-NH2] (Lauroyl-RSRWRDVLRNFMR-NH2) | 1 | 4 (≈ 2.03 µM) | 32 (≈ 16.2 µM) | 2 (≈ 1.01 µM) | 1 (≈ 0.507 µM) | 4 (≈ 2.03 µM) | 2 |
| CCCCCCCC(=O)NCCNC(=O)[C@H](CCCNC(=N)N)NC(=O)[C@H](CCSC)NC(=O)[C@H](Cc1ccccc1)NC(=O)[C@H](CC(N)=O)NC(=O)[C@H](CCCNC(=N)N)NC(=O)[C@H](C)NC(=O)[C@@H](NC(=O)[C@H](CC(=O)O)NC(=O)[C@H](CCCNC(=N)N)NC(=O)[C@H](Cc1c[nH]c2ccccc12)NC(=O)[C@H](CCCNC(=N)N)NC(=O)[C@H](CO)NC(=O)[C@@H](N)CCCNC(=N)N)C(C)C [Peptide 174, H2N-RSRWRDVARNFMR-Ethylamidooctanyl] (H-RSRWRDVARNFMR-{Ethylenediamine-Octanoyl}; C-terminus assumed) | 32 | 8 (≈ 4.17 µM) | 4 (≈ 2.09 µM) | 16 (≈ 8.34 µM) | 1 (≈ 0.521 µM) | 2 (≈ 1.04 µM) | 64 |
| CCCCCC(=O)NCCNC(=O)[C@H](CCCNC(=N)N)NC(=O)[C@H](CC(C)C)NC(=O)[C@H](Cc1ccccc1)NC(=O)[C@H](CC(N)=O)NC(=O)[C@H](CCCNC(=N)N)NC(=O)[C@H](C)NC(=O)[C@@H](NC(=O)[C@H](CC(=O)O)NC(=O)[C@H](CCCNC(=N)N)NC(=O)[C@H](Cc1c[nH]c2ccccc12)NC(=O)[C@H](CCCNC(=N)N)NC(=O)[C@H](CO)NC(=O)[C@@H](N)CCCNC(=N)N)C(C)C [Peptide 168, H2N-RSRWRDVARNFLR-Ethylamidohexanyl] (H-RSRWRDVARNFLR-{Ethylenediamine-Hexanoyl}; C-terminus assumed) | 32 | 16 (≈ 8.55 µM) | 32 (≈ 17.1 µM) | 16 (≈ 8.55 µM) | 1 (≈ 0.534 µM) | 2 (≈ 1.07 µM) | 64 |
| CCCCCCCCCCCC(=O)N[C@H](CCCNC(=N)N)C(=O)N[C@H](Cc1c[nH]c2ccccc12)C(=O)N[C@H](CCCNC(=N)N)C(=O)N[C@H](CC(=O)O)C(=O)N[C@@H](C(=O)N[C@H](C)C(=O)N[C@H](CCCNC(=N)N)C(N)=O)C(C)C [Peptide 122, Lauryl-rwrdvar-NH2] (Lauroyl-[dR][dW][dR][dD][dV][dA][dR]-NH2) | 32 | 8 (≈ 7.02 µM) | 16 (≈ 14 µM) | 32 (≈ 28.1 µM) | 8 (≈ 7.02 µM) | 64 (≈ 56.2 µM) | 32 |
| CCCCCCCCCCCC(=O)N[C@H](CCCNC(=N)N)C(=O)N[C@H](CO)C(=O)N[C@H](CCCNC(=N)N)C(=O)N[C@H](CC(C)C)C(=O)N[C@H](CCCNC(=N)N)C(=O)N[C@H](CC(=O)O)C(=O)N[C@H](CC(C)C)C(=O)N[C@H](CC(C)C)C(=O)N[C@H](CCCNC(=N)N)C(=O)N[C@H](CC(N)=O)C(=O)N[C@H](CC(C)C)C(=O)N[C@H](C)C(=O)N[C@H](CCCNC(=N)N)C(N)=O [Peptide 132, Lauryl-rsrlrdllrnlar-NH2] (Lauroyl-[dR][dS][dR][dL][dR][dD][dL][dL][dR][dN][dL][dA][dR]-NH2) | 4 | 4 (≈ 2.2 µM) | 32 (≈ 17.6 µM) | 4 (≈ 2.2 µM) | 2 (≈ 1.1 µM) | 4 (≈ 2.2 µM) | 8 |
